Results reported in patent US12180474B2, “Methods of treating porphyria” (University of Pittsburgh—Of the Commonwealth System of …, priority 2018, dated 2024).

Key:
Assay type in all cases: in vivo
[1] = molecular target: T1, Porcupine (PORCN) (Mus musculus, UniProt Q9JJJ7); test: Wnt-C59 in DDC-fed CD-1 mice (Example 2); conditions: 30 mg/kg i.p.
T1 construct: from tissue; host or cells: whole mouse in vivo; liver and serum analysed
T1 sequence (Q9JJJ7 1-461): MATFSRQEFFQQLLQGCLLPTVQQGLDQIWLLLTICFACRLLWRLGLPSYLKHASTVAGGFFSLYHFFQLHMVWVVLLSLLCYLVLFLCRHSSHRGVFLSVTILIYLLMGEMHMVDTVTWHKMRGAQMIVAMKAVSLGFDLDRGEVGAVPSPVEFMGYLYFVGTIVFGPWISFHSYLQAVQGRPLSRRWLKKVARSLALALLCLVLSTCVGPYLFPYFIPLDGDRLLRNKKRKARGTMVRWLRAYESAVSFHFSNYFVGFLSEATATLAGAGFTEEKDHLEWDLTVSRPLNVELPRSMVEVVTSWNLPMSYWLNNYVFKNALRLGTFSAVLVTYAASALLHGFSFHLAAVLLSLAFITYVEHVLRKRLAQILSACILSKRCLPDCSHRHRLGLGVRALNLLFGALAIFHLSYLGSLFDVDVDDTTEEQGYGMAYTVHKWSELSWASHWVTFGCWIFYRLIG
Method: Two-month old CD-1 mice were started on a 0.1% DDC diet to induce porphyria. Three days after starting the diet, mice received intraperitoneal (i.p.) injections of 30 mg/kg Porcupine (PORCN) inhibitor Wnt-C59. The Wnt-C59 was delivered on a five days on, two days off schedule for two weeks. Mice were sacrificed 6 hours after the final dose of Wnt-C59. Serum and livers from the control and experimental groups were utilized for IHC, Western blotting, and biochemical assays, as described in Example 1.

[2] = molecular target: T1, Porcupine (PORCN); test: Wnt-C59 in WT1/WT2 mice, acute intermittent porphyria model (Example 3); conditions: 30 mg/kg i.p., vs control group
[3] = molecular target: T1, Porcupine (PORCN); test: Wnt-C59, GS and p-mTOR IHC in DDC-fed WT1/WT2 mice (Example 4)
Description: To test the effect of Wnt-C59 on GS and p-mTOR levels, two-month old WT1/WT2 mice were exposed to a DCC diet, as described in Example 1, and received i.p. injections of Wnt-C59, as described in Example 2. Livers from the control and experimental groups were utilized for IHC, as described in Example 1.

[4] = five days on, two days off for two weeks, 0.1% DDC diet

Cc1cc(-c2ccc(CC(=O)Nc3ccc(-c4cccnc4)cc3)cc2)ccn1 [Wnt-C59]
glutamine synthetase (GS), β-catenin activity ([1]; DDC diet): decrease | porphyrin accumulation (H&E) ([1]; DDC diet): decreased | serum ALP [1, 4]: significantly reduced | serum ALT [1, 4]: significantly reduced | serum AST [1, 4]: significantly reduced | serum total bilirubin [1, 4]: significantly reduced | ALA-D mRNA levels [2]: significantly reduced | ALA-S mRNA levels [2]: significantly reduced | p-mTOR protein expression (IHC) ([3]; DCC diet and Wnt-C59 injection): no expression | GS protein expression (IHC) ([3]; DDC diet and Wnt-C59 injection): no expression
